Here are results for one molecule from publication PMC13338763, “Harnessing albumin as a carrier for the delivery of anti-HIV drugs to the lymphatic system” (Acta biomaterialia, 2025).

SMILES strings stand for the structures.

Data set [1] concerns albumin. Set-up: method as in PMID 27682195. Particulars: cited from earlier work.
Data set [2] concerns the target T1, fibrinogen (Homo sapiens, UniProt P02671+P02675+P02679).
T1 sequence (P02671 20-629 limits assumed): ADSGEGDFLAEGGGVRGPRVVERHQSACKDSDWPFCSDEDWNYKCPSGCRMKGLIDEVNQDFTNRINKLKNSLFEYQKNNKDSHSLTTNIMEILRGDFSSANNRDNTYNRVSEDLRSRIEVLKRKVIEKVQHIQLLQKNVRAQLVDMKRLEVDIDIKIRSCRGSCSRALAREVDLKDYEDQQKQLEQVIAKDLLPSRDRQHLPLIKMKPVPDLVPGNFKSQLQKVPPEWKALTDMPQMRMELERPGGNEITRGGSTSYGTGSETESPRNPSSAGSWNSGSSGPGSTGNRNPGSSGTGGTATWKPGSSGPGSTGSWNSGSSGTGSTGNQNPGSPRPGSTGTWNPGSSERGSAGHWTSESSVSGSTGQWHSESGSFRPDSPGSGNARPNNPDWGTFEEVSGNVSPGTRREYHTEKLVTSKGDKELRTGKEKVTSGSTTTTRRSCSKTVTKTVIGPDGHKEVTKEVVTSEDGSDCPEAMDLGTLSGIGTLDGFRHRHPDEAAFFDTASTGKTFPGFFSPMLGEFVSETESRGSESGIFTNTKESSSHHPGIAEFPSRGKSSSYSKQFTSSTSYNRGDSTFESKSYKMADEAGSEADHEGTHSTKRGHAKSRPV
T1 sequence (P02675 31-491): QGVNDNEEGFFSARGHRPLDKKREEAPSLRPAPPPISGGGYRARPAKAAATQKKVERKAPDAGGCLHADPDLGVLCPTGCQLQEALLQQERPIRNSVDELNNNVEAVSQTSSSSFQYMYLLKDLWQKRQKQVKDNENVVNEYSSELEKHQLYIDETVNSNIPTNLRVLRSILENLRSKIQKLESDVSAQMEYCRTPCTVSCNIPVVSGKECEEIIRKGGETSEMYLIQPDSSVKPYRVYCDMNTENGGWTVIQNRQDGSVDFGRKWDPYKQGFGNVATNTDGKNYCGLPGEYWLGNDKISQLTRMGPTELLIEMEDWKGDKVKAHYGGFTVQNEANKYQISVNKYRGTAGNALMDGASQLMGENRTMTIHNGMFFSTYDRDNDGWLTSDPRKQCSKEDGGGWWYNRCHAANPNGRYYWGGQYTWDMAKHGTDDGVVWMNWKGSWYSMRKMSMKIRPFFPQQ
T1 sequence (P02679 27-453): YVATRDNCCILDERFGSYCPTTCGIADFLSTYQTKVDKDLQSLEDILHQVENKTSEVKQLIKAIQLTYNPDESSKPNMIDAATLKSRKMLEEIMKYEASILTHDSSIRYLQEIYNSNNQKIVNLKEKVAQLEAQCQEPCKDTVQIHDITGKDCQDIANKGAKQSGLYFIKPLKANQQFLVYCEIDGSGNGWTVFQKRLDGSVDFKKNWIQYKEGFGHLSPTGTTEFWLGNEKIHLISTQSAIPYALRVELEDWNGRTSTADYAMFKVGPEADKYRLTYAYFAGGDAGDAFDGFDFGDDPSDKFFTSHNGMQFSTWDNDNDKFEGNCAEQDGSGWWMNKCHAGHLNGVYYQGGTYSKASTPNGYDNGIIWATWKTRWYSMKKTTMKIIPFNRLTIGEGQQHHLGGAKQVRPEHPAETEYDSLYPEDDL
Kind of data set: Gel retardation study with fibrinogen. The data set is classed as binding. How it is done:
(§1) Twenty (20) μg EB, hEB, hEB-platin, or hEB-DTG were mixed with or without various amounts of BSA, globulin, fibrinogen or FBS in 200 μL saline water, then 40 μL of the mixed solution were loaded to 1.5 % agarose gel and run under 120 V for 30 min.

Data set [3] concerns HEK293T cells. The experiment in a line: Cellular uptake study in vitro (flow cytometry). It counts as cell-based. Particulars: in words. On the procedure: HEK293T or HUVEC cells were seeded to 6-well plates. After overnight incubation, the culture medium was replaced by fresh medium containing 10 μM EB and 2, 5, or 20 mg/mL BSA for incubation of 0.5, 1 or 3 h at 37 °C. Later, cells were washed with cold PBS and fixed with PBS containing 4 % (w/v) formaldehyde.
Cellular uptake of different treatments was quantified by flow cytometry. Fluorescence was examined at an excitation wavelength of 532 nm and an emission wavelength of 660 nm. 10 × 10^4 events were collected for each sample.
A general note: A flow cytometer gives signals particle by particle.

Data set [4] deals with HUVEC monolayer. The experiment in a line: Transwell study: transport across a HUVEC monolayer, flow cytometry of HEK293T cells in lower chamber. Particulars: 8 h; for EB transport across a HUVEC monolayer: EB-positive cells in the lower chamber: Fig. 1J. It counts as cell-based. How it is done:
HEK293T were seeded to 6-well plates as lower chamber and HUVEC were seeded to Corning (NY, USA) 6-well plate inserts (0.4 μm pore size) in another plate as upper chamber, respectively. After incubation and the cell layer on the upper chamber became intact, the culture medium in the inserts was replaced by fresh medium containing 0, 5 or 20 μg/mL filipin and 0 or 10 μg/mL LPS for overnight incubation. Next, the culture medium in the inserts was replaced with fresh medium containing 10 μM EB, hEB or hEB-DTG and 2 mg/mL BSA, then the inserts were moved to the wells cultured with HEK293T cells for incubation of 8 h at 37 °C. After that, HEK293T cells in the lower chambers were washed with cold PBS.
EB signals in HEK293T cells were quantified by flow cytometry. Fluorescence was examined at an excitation wavelength of 532 nm and an emission wavelength of 660 nm. 10 × 10^4 events were collected for each sample.

For data set [5], the target named is BSA (Bos taurus, UniProt P02769). The experiment in a line: Gel retardation study with BSA. It counts as binding, bovine. Particulars: BSA, weight ratio. How it is done:
as §1

Data set [6] in a line: Distribution in LN tissue and cells in LNs after i.v. injection (fluorescence microscopy, flow cytometry). It counts as in vivo. How it is done:
Five (5) μM/kg EB, hEB or hEB-DTG were i.v. injected into mice pretreated intraperitoneally with or without 2.5 mg/kg LPS for 24 h. After 24 h, LNs from different sites were collected and their signals of EB were checked under fluorescent microscopy. To evaluate the EB signals in various types of cells, LNs were disrupted mechanically using scissors, digested with a mixture of deoxyribonuclease I (0.3 mg/mL, Sigma-Aldrich) and TL Liberase (0.25 mg/mL, Roche, IN, USA) in serum-free RPMI-1640 at 37 °C for 30 min, and dispersed through a 40 μm cell strainer (BD Biosciences, CA, USA). After red blood cell lysis, live/dead cell discrimination was performed using a Zombie NIR Fixable Viability Kit (BioLegend, CA, USA, dilution: 1/1000) at 4 °C for 30 min in DPBS. Surface staining was performed at 4 °C for 30 min in FACS staining buffer (1 × phosphate-buffered saline/5 % FBS/0.5 % sodium azide) containing designated antibody cocktails (PerCP anti-mouse CD45 antibody, Brilliant Violet 785 anti-mouse CD4 antibody, FITC anti-mouse CD8 antibody, APC anti-mouse CD11b antibody, APC/Cyanine7 anti-mouse F4/80 antibody, Pacific Blue anti-mouse CD19 antibody and AF647 anti-mouse CD27 antibody; dilution: 1/200 for all antibodies). Flow cytometry was performed with LSRII (BD Biosciences) and Aurora (Cytek Biosciences, CA, USA) instruments and analyzed by FlowJo (BD Biosciences). The EB signals in each type of cell were quantified as mentioned above.

In data set [7] the test system is globulin. Kind of data set: Gel retardation study with globulin. It counts as binding. On the procedure: as §1

Chain of BSA (P02769 25-607): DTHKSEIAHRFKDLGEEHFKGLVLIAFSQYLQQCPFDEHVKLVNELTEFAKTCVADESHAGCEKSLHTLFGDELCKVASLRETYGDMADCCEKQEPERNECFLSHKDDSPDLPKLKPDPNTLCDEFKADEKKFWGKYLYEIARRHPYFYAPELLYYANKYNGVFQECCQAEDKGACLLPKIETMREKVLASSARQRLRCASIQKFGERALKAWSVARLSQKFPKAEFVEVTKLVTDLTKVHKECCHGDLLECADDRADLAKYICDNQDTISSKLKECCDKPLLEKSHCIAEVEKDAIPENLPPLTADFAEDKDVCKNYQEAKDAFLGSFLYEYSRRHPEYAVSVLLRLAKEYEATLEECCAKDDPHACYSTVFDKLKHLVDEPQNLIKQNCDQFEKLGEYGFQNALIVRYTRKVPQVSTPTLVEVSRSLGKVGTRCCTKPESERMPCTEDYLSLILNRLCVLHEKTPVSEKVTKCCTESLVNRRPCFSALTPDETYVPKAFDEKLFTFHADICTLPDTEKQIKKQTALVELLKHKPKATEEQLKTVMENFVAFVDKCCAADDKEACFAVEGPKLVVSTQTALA

Regarding `Cc1cc(-c2ccc(/N=N/c3ccc4c(S(=O)(=O)O)cc(S(=O)(=O)O)c(N)c4c3O)c(C)c2)ccc1/N=N/c1ccc2c(S(=O)(=O)O)cc(S(=O)(=O)O)c(N)c2c1O` [EB, Evans Blue], in data set [1], the “EB molecules bound per albumin molecule” value is listed as “up to 14”. Further, the binding to fibrinogen result in data set [2] is “no detectable binding”. Besides, the cellular uptake entry in data set [3] is “efficient and albumin-dependent”. Moreover, the “EB transport across a HUVEC monolayer: EB-positive cells in the lower chamber” value in data set [4] (CT (no pretreatment)) came to 98.8%; in data set [4] (HUVEC pretreated with LPS + filipin), 9.66%; in data set [4] (HUVEC pretreated with LPS), 98.7%; in data set [4] (HUVEC pretreated with filipin), 5.04%. Moreover, the “transport across endothelial cell monolayer” value in data set [4] (albumin-bound, in words) is listed as “strong fluorescent signals were detected in the lower chamber”. Besides, the “albumin/EB weight ratio at which the majority of EB molecules were bound to albumin” value in data set [5] was no less than 25. For the same molecule, the “fluorescence signal in LNs” value in data set [6] (24 h post i.v. injection, in words) is recorded as “Robust EB fluorescence was detected in all LNs examined”. The “EB signals in LNs of LPS-treated vs naive mice” value in data set [6] (24 h post-injection, LPS 2.5 mg/kg i.p.) was “not significantly different”. The “uptake by immune cell populations in LNs” value in data set [6] (flow cytometry, in words) is given as “significant EB signal across multiple cell populations”. Moreover, the binding to globulin result in data set [7] is given as “no detectable binding”.
